Results from patent US20260022095A1, “COMPOUNDS USEFUL FOR THE PREPARATION OF VARIOUS AGROCHEMICALS AND MARKERS THEREOF” (ADAMA AGAN LTD., priority 2021, published 2026).

Experiment: Sunlight exposure of buffered aqueous Tetflupyrolimet solutions, Storage Marker formation by HPLC-MS
Format: physicochemical
Details: natural sunlight approximately 2 months; for concentration of the Storage Marker as compared to the solution buffered at pH=7: quartz tube
Protocol: Three lots of about 50 mg of Tetflupyrolimet were each suspended in about 2 ml of a 2% solution of acetonitrile in water, and sonicated for about 20 minutes.
Into each, about 0.1 ml of a different buffer was added, pH=4, pH=7 and pH=10 respectively.
The three solutions were each filtered and introduced to quartz tubes and exposed to natural sunlight for approximately 2 months.
• Column: Agilent Zorbax Eclipse XDB C18, 150×4.6 mm ID, 5.0 μm • Injection volume: 5 μL • Oven temperature: 40° C. • Detector: UV, □=230, 250, 280 nm • Solvent delivery system conditions at flow rate of 1.0 ml/min: […]

CN1C[C@H](c2cccc(C(F)(F)F)c2)[C@@H](C(=O)Nc2ccccc2F)C1=O [Tetflupyrolimet, (3S,4S)—N-(2-fluorophenyl)-1-methyl-2-oxo-4-(3-(trifluoromethyl)phenyl) pyrrolidine-3-carboxamide]
formation of Storage Marker (HPLC-MS) (2% acetonitrile in water, buffered at pH=4, pH=7 and pH=10, quartz tubes): formation of Storage Marker in each solution
concentration of the Storage Marker as compared to the solution buffered at pH=7 (solution buffered at pH 4): approximately an order of magnitude higher concentration of the Storage Marker
concentration of the Storage Marker as compared to the solution buffered at pH=7 (solution buffered at pH 10): approximately an order of magnitude higher concentration of the Storage Marker
